“Also recorded” adds a separate entry of the source. Read-outs that look alike come from different tables or passages of the source.
Experiments:
[1] = system: MDA-MB-231 human breast cancer cells; assay: Cell cycle analysis (DNA content, flow cytometry); type: cell-based; conditions: GI50 concentration; FIG. 1
Procedure: FIG. 1 depicts DNA content profiles of MDA-MB-231 human breast cancer cells treated with subject compounds or commercial CDK inhibitors, showing the percentage of cells at the different cell cycle phases after 48 hours of the treatments indicated. (n=6 technical replicates).
Cells were collected by trypsinization, washed with PBS and fixed with cold 70% ethanol. Cells were treated with 250 μg/ml RNase (Qiagen) for 30 minutes at 37° C. and stained with 10 μg/ml Propidium Iodide (Sigma). Cell cycle was analyzed by flow cytometry using a LSR Fortessa Analyzer. Cell cycle profiles were generated and analyzed with FlowJo software.
Cells were collected by tripsinization at several times after treatment with the indicated compounds and, then, fixed with cold 70% Ethanol. DNA content was determined by staining with propidium iodide (10 μg/ml, Sigma Aldrich). Data acquisition was performed with a LSR Fortessa analyzer (BD Biosciences) and analysed using FlowJo software.

[2] = system: U87MG glioblastoma cell line; assay: Proliferation assay: determination of GI50; type: cell-based, human
Procedure: (§1) The following human tumor cell lines, all Retinoblastoma (Rb)-proficient, were used in this study: MDA-MB231 (breast cancer), MDA-MB453 (breast cancer), U87MG (glioblastoma) and H460 (lung cancer). MDA-MB468 (breast cancer) and SW1783 (glioblastoma) Rb-deficient cells were also included in the study, as well as the MCF10A non-transformed mammary epithelial cell line. Tumor cell lines were maintained in DMEM or RPMI-1640 medium, depending on the cell line, supplemented with 10% FBS. MCF10A cells were grown in complete mammary epithelial growth medium (MEGM, Lonza). Cell lines were authenticated by short tandem repeat (STR) loci profiling with the GenePrint® 10 System (Promega).
(§2) All human cancer cell lines (Table 2) were obtained from the American Type Culture Collection, and were maintained in DMEM (Hyclone) or RPMI-1640 medium (Sigma) supplemented with 10% fetal bovine serum (Sigma). Non-transformed MCF10 cell line was maintained in MEGM Mammary Epithelial Cell Growth Medium (Lonza). Immortalized mouse embryonic fibroblasts (MEFs) were maintained in DMEM with 10% fetal bovine serum.
(§3) 48 h later cells were fixed with PFA 4% for 15 minutes, stained with 10 μg/ml Hoechst 33342 (Molecular Probes, Thermo Fisher) for 30 minutes and washed twice with PBS. Cells were imaged in a high content screening system (Opera Phoenix™, Perkin Elmer) using a 20× dry objective (30 fields/well). Cell counts were determined by the Opera software (Perkin Elmer) and data were further processed with SPSS software. GI50 was calculated by estimating the absolute IC50 using dose-response inhibition tool in Prism6 (Graphpad Software Inc.).

[3] = system: MCF10 non-transformed mammary epithelial cell line; assay: Proliferation assay: determination of GI50; type: cell-based, human; conditions: Table 3, 48 h, n = 2 independent experiments
Procedure: as §1, §2, §3

[4] = system: MDA-MB-231 breast carcinoma cell line; assay: Proliferation assay: determination of GI50; type: cell-based, human
Procedure: as §1, §2, §3

[5] = system: H460 lung carcinoma cell line; assay: Proliferation assay: determination of GI50; type: cell-based, human; conditions: Table 3, 48 h, n = 2 independent experiments
Procedure: as §1, §2, §3

CDK1/CycA2 = CDK1/CycA2 (Homo sapiens, UniProt P06493); assay: Kinase profiling; type: biochemical
[6] = Summary of solubility, metabolic stability and permeability
[7] = Metabolic stability in hepatocytes; type: in vitro ADME; conditions: human, 60-90 min test
[8] = Kinetic solubility (pH 7.4); type: physicochemical; conditions: pH 7.4, aqueous buffer, kinetic from dmso stock
[9] = Toxicologic evaluation in vivo; conditions: 50 or 100 mg/kg intraperitoneally twice a week for two weeks; for lung toxicity (hemorrhage in the lungs), mice affected: FIG. 11; for mouse weight: vs DMSO
[10] = Metabolic stability in microsomes; type: in vitro ADME; conditions: mouse, 60-90 min test
[11] = Metabolic stability in hepatocytes; type: in vitro ADME; conditions: mouse, 60-90 min test
[12] = system: MDA-MB-231-derived xenografts; assay: Tumor xenografts; type: in vivo, Athymic nude mice; conditions: 100 mg/Kg intraperitoneally twice per week, two weeks
Procedure: For histological analysis, mice tissues and human xenografts were fixed in 10%-buffered formalin (Sigma) and embedded in paraffin wax. Sections of 3- or 5-μm thickness were stained with haematoxylin and eosin. Additional immunohistochemical examination was performed using a specific antibody against phospho-Rb (Ser807/811; Cell Signaling) or Ki67 (DAKO).
DMSO, PS004, PS006 and PS009 were diluted in sesame oil and administered intraperitoneally twice per week during two weeks at 100 mg/Kg. […] Tumor growth was monitored using caliper measurements and tumor size was estimated using the following formula: Tumor volume (mm^3)=d^2·D/2 where d and D, are the shortest and longest diameter in mm, respectively. After completing the treatment, mice were sacrificed and tumors were extracted, weighed, and fixed for histological analysis.
The therapeutic effect of the subject compounds was then tested by treating mice previously injected subcutaneously with MDA-MB-231 breast cancer cells. […] The dose amount of 100 mg/kg dosage in these cases was administered at a frequency of two injections per week for the total of two weeks of treatment.

[13] = Thermodynamic solubility (pH 7.4); type: physicochemical; conditions: pH 7.4, aqueous buffer, thermodynamic from solid
[14] = Homo sapiens, U-87 MG, Table 3, 48 h, n = 3 independent experiments, read-out: GI50 U87MG
[15] = Homo sapiens, MDA-MB-231, Table 3, 48 h, n = 3 independent experiments, read-out: GI50 MDA-MB231
[16] = 10 semi-logarithmic dilutions from 50 μM, singlicate

Chain of CDK1/CycA2 (P06493 whole entry): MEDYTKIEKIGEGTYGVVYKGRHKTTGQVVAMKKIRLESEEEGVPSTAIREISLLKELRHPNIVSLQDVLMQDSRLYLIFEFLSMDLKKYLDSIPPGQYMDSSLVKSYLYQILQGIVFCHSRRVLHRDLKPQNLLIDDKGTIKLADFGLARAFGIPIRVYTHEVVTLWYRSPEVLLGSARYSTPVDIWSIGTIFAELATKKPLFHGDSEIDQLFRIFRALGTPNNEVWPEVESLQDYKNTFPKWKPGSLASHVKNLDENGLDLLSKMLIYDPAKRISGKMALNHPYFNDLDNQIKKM
Chain of CDK1/CycA2 (P20248 whole entry partner): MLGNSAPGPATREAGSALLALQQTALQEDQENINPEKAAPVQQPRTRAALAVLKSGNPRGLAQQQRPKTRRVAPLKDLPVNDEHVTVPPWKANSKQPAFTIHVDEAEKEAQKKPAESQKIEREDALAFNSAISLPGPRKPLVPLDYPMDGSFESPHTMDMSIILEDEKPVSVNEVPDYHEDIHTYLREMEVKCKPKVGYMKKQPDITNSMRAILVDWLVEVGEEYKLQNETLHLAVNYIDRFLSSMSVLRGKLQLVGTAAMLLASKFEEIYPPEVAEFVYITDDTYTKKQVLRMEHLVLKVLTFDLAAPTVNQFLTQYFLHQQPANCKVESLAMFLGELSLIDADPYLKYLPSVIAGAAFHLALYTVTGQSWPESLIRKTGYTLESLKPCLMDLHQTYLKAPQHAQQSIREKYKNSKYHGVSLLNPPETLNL

Row | GI50 [2, 14] [µM] | GI50 [4, 15] [µM] | GI50 ([5]; Homo sapiens, NCI-H460) [µM] | IC50 (CDK1/CycA2; [16]) [µM] | Structure (SMILES) | cell cycle arrest by DNA content [1] | cell death (sub-G1 accumulation) [1] | GI50 ([3]; Homo sapiens, MCF10) [µM] | further results
1 | 0.04 | 0.15 | 0.16 | 0.208 | O=c1ccc2cnc(Nc3ccc(N4CCNCC4)cc3)nc2n1[C@@H]1CC2CCC1C2 (stereo partly drawn) [PS007, 8-((2R)-bicyclo[2.2.1]heptan-2-yl)-2-((4-(piperazin-1-yl)phenyl)amino)pyrido[2,3-d]pyrimidin-7(8H)-one] | accumulation of cells both in G1 and G2/M phases | led to cell death | 0.07 | –
2 | 1.12 | 1.23 | 0.44 | 1.36 | O=c1ccc2cnc(Nc3ccc(N4CCC(OCC5(CO)COC5)CC4)cc3)nc2n1[C@@H]1CC2CCC1C2 (stereo partly drawn) [PS016, 8-((2R)-bicyclo[2.2.1]heptan-2-yl)-2-((4-(4-((3-(hydroxymethyl)oxetan-3-yl)methoxy)piperidin-1-yl)phenyl)amino)pyrido[2,3-d]pyrimidin-7(8H)-one] | induced G2/M arrest | – | 0.13 | –
3 | 0.05 | 0.14 | 0.13 | 0.18 | CC(O)CCN1CCN(c2ccc(Nc3ncc4ccc(=O)n([C@@H]5CC6CCC5C6)c4n3)cc2)CC1 (stereo partly drawn) [PS005, 8-((2R)-bicyclo[2.2.1]heptan-2-yl)-2-((4-(4-(3-hydroxybutyl)piperazin-1-yl)phenyl)amino)pyrido[2,3-d]pyrimidin-7(8H)-one] | accumulation of cells both in G1 and G2/M phases | led to cell death | 0.05 | –

Further lines, the molecule ahead of its results:

Row | Structure (SMILES) | GI50 [2, 14] [µM] | GI50 [4, 15] [µM] | GI50 ([5]; Homo sapiens, NCI-H460) [µM] | IC50 (CDK1/CycA2; [16]) [µM] | cell cycle arrest by DNA content [1] | cell death (sub-G1 accumulation) [1] | GI50 ([3]; Homo sapiens, MCF10) [µM] | further results
4 | CC(=O)c1c(C)c2cnc(Nc3ccc(N4CCC(CCCO)CC4)cc3)nc2n([C@@H]2CC3CCC2C3)c1=O (stereo partly drawn) [PS008, 6-acetyl-8-((2R)-bicyclo[2.2.1]heptan-2-yl)-2-((4-(4-(3-hydroxypropyl)piperidin-1-yl)phenyl)amino)-5-methylpyrido[2,3-d]pyrimidin-7(8H)-one] | 2.44 | 4.5 | 2.57 | 39.1 | induced accumulation of cells in G0/G1 | – | 0.7 | –
5 | CC(=O)c1c(C)c2cnc(Nc3ccc(N4CCC(CCCO)CC4)cc3)nc2n(C2CCCC2)c1=O [PS009, 6-acetyl-8-cyclopentyl-2-((4-(4-(3-hydroxypropyl)piperidin-1-yl)phenyl)amino)-5-methylpyrido[2,3-d]pyrimidin-7(8H)-one] | 0.9 | 3 | 1.55 | > 50 | induced accumulation of cells in G0/G1; also recorded: arrested cells predominantly in G1 | – | 1.17 | Summary: permeability [6]: Low; Summary: solubility [6]: insoluble; also recorded: Insoluble,; hepatocyte CLint ([7]; read-out: Metabolic stability, Human hepatocytes: Clearance): 41.7 µL/min/1e6 cells; half-life ([7]; read-out: Metabolic stability, Human hepatocytes: t1/2): 33.3 min; solubility kinetic [8]: < 1 µM; GI50 ([2]; Homo sapiens, U-87 MG, Table 4, n = 4, read-out: Growth inhibition GI50, Glioblastoma pRB Wild-Type U87MG): 6.9 µM; GI50 ([4]; Homo sapiens, MDA-MB-231, Table 4, n = 4, read-out: Growth inhibition GI50, Breast cancer pRB Wild-Type MDA-MB-231): 3.3 µM; blood counts (white blood cells, lymphocytes) ([9]; FIG. 10): no defects in blood counts; lung toxicity (hemorrhage in the lungs), mice affected [9]: 1 out of 6; mouse weight ([9]; FIG. 10): induced weight loss; microsomal CLint ([10]; read-out: Metabolic stability, Mouse microsomes: Clearance): 46.9 µL/min/mg; half-life ([10]; read-out: Metabolic stability, Mouse microsomes: t1/2): 29.5 min; hepatocyte CLint ([11]; read-out: Metabolic stability, Mouse heptocytes: Clearance): 67.8 µL/min/1e6 cells; half-life ([11]; read-out: Metabolic stability, Mouse heptocytes: t1/2): 20.4 min; phospho-RB levels in the xenografts ([12]; FIG. 9A): reduction of phospho-Rb phosphorylation which however did not reach statistical significance; tumor weight ([12]; vs DMSO, FIG. 8A): did not exert any antitumoral effect; tumor growth ([12]; vs DMSO, FIG. 8B): did not exert any antitumoral effect; solubility thermodynamic [13]: < 2 µM
6 | O=c1ccc2cnc(Nc3ccc(N4CCC(CCCO)CC4)c(F)c3)nc2n1[C@@H]1CC2CCC1C2 (stereo partly drawn) [PS003, 8-((2R)-bicyclo[2.2.1]heptan-2-yl)-2-((3-fluoro-4-(4-(3-hydroxypropyl)piperidin-1-yl)phenyl)amino)pyrido[2,3-d]pyrimidin-7(8H)-one] | 4.1 | 3.9 | 1.6 | 7.86 | induced G2/M arrest | – | 7.5 | –
7 | O=c1ccc2cnc(Nc3ccc(N4CCC(CCCO)CC4)cc3)nc2n1C1CC2CCC1C2 (centres unmarked) [PD-0183812, reference compound] | – | – | – | – | arrested cells with a 4N DNA content | – | – | GI50 ([2]; Table 3, 48 h, n = 3 independent experiments, read-out: GI50 U87MG): 7.45 µM; GI50 [3]: 3.3 µM; GI50 ([4]; Table 3, 48 h, n = 3 independent experiments, read-out: GI50 MDA-MB231): 2.15 µM; GI50 [5]: 1.57 µM; histopathology of the bone marrow [9]: hypoplasia/reactive bone marrow; histopathology of the intestine [9]: aberrant mitotic figures; histopathology of the spleen [9]: active extramedullar hematopoiesis; lung toxicity (hemorrhage in the lungs), mice affected [9]: 6 out of 6; mouse weight ([9]; FIG. 10): induced significant weight loss; IC50 (CDK1/CycA2): 28.8 µM
8 | CC(=O)c1c(C)c2cnc(Nc3ccc(N4CCNCC4)cc3)nc2n([C@@H]2CC3CCC2C3)c1=O (stereo partly drawn) [PS010, 6-acetyl-8-((2R)-bicyclo[2.2.1]heptan-2-yl)-5-methyl-2-((4-(piperazin-1-yl)phenyl)amino)pyrido[2,3-d]pyrimidin-7(8H)-one] | 0.16 | 0.5 | 0.37 | 4.21 | accumulation of cells both in G1 and G2/M phases | led to cell death | 0.08 | –

Reference: patent publication US20230042936A1, “PYRIDO[2,3-d]PYRIMIDIN-7(8H)-ONES AS CDK INHIBITORS” (PROSENESTAR LLC, priority 2020, published 2023)
